Values quoted from earlier work in US7388019B2, “3-amino-4-phenylbutanoic acid derivatives as dipeptidyl peptidase inhibitors for the treatment or prevention of diabetes” (Merck & Co., Inc., priority 2003, dated 2008).
One block for each compound: values may come before it.

Assays:
[1] = rats
[2] = biological target: T1, DP-IV (Homo sapiens, UniProt P27487); settings: plasma
T1 construct: GRF is rapidly degraded in plasma to GRF[3-44]; from tissue

[3] = mouse, cyclophosphamide-induced neutropenia

T1 sequence (P27487 39-766 limits assumed): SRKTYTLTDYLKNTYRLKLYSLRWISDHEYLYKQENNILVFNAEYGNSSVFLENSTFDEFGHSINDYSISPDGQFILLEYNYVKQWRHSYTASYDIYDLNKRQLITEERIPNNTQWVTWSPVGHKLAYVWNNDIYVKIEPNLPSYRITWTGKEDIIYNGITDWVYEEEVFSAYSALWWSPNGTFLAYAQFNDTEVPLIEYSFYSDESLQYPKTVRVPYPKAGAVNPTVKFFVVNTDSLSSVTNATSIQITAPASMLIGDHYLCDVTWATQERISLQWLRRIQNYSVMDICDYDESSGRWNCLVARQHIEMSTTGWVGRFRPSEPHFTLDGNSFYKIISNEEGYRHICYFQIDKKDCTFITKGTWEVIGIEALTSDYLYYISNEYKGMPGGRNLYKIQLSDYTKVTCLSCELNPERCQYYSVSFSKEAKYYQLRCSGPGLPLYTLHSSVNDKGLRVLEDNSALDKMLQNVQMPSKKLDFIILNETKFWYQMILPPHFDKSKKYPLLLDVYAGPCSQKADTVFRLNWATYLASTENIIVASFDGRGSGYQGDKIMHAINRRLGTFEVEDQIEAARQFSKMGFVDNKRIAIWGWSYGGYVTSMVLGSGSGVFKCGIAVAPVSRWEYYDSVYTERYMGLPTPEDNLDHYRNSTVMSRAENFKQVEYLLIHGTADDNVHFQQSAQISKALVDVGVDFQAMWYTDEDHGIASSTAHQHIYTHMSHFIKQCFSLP

Compound: CC(C)N1CCC(c2ccccc2)(c2ccccc2)CC1 [Prodipine, Pro-Pro-diphenyl-phosphonate]
cardiac allograft survival [1]: double cardiac allograft survival in rats from day 7 to day 14

degradation of GRF to GRF[3-44] [2]: prevented
Compound: diprotin A

Compound: CC(C)[C@H](N)C(=O)N1CCC[C@H]1B(O)O [Val-Boro-Pro]
hematopoiesis [3]: stimulated hematopoiesis
